The results in this text go back to ChEMBL document CHEMBL4387741, “Optimization of novel reversible Bruton's tyrosine kinase inhibitors identified using Tethering-fragment-based screens” (Bioorg Med Chem, 2019).

The target of data set [1] is Tyrosine-protein kinase JAK3 (Homo sapiens) (UniProt P52333). The experiment in a line: Inhibition of wild-type human partial length JAK3 JH1 catalytic domain (I781 to S1124 residues) expressed in mammalian expression system at 1 uM by Kinomescan method relative to control.
Data set [2] has as its target Myosin light chain kinase 2, skeletal/cardiac muscle (Homo sapiens) (UniProt Q9H1R3). The experiment in a line: Inhibition of wild-type human partial length MYLK2 (D258 to K570 residues) expressed in bacterial expression system at 1 uM by Kinomescan method relative to control.
Data set [3] concerns the target Dual specificity tyrosine-phosphorylation-regulated kinase 2 (Homo sapiens) (UniProt Q92630). The experiment in a line: Inhibition of wild-type human full length DYRK2 (M1 to S528 residues) expressed in mammalian expression system at 1 uM by Kinomescan method relative to control.
A short description of data set [4]: Terminal half-life in Sprague-Dawley rat at 1 mg/kg, iv. It is filed as ADME, organism-based. The conditions noted are these: in vivo, read-out: beta t1/2 (converted).
Data set [5] deals with Membrane-associated tyrosine- and threonine-specific cdc2-inhibitory kinase (Homo sapiens) (UniProt Q99640). The experiment in a line: Inhibition of wild-type human partial length PKMYT1 (A88 to G366 residues) expressed in bacterial expression system at 1 uM by Kinomescan method relative to control.
Data set [6] deals with Serine/threonine-protein kinase Nek1 (Homo sapiens) (UniProt Q96PY6). The experiment in a line: Inhibition of wild-type human partial length NEK1 (M1 to K278 residues) expressed in bacterial expression system at 1 uM by Kinomescan method relative to control.
In data set [7] the target is Vascular endothelial growth factor receptor 1 (Homo sapiens) (UniProt P17948). The experiment in a line: Inhibition of wild-type human partial length FLT1 (R781 to F1239 residues) expressed in bacterial expression system at 1 uM by Kinomescan method relative to control.
Data set [8] addresses Protein kinase C theta type (Homo sapiens) (UniProt Q04759). The experiment in a line: Inhibition of wild-type human partial length PRKCQ (L350 to S706 residues) expressed in bacterial expression system at 1 uM by Kinomescan method relative to control.
Data set [9] deals with Ribosomal protein S6 kinase alpha-1 (Homo sapiens) (UniProt Q15418). The experiment in a line: Inhibition of wild-type human partial length N-terminal RSK1 Kinase domain 1 (M1 to E388 residues) expressed in bacterial expression system at 1 uM by Kinomescan method relative to control.
The target in data set [10] is Tyrosine-protein kinase FRK (Homo sapiens) (UniProt P42685). The experiment in a line: Inhibition of wild-type human partial length FRK (A215 to F503 residues) expressed in bacterial expression system at 1 uM by Kinomescan method relative to control.
Data set [11] has as its target Tyrosine-protein kinase SYK (Homo sapiens) (UniProt P43405). The experiment in a line: Inhibition of wild-type human partial length SYK (D354 to N635 residues) expressed in bacterial expression system at 1 uM by Kinomescan method relative to control.
The target in data set [12] is cGMP-dependent protein kinase 1 (Homo sapiens) (UniProt Q13976). The experiment in a line: Inhibition of wild-type human partial length PRKG1 (L339 to F686 residues) expressed in bacterial expression system at 1 uM by Kinomescan method relative to control.
Data set [13] has as its target Phosphatidylinositol 4,5-bisphosphate 3-kinase catalytic subunit gamma isoform (Homo sapiens) (UniProt P48736). The experiment in a line: Inhibition of wild-type human partial length PIK3CG (S144 to A1102 residues) expressed in mammalian expression system at 1 uM by Kinomescan method relative to control.
For data set [14], the target named is Serine/threonine-protein kinase Sgk1 (Homo sapiens) (UniProt O00141). The experiment in a line: Inhibition of wild-type human partial length SGK (I60 to L431 residues) expressed in mammalian expression system at 10 uM by Kinomescan method relative to control.
For data set [15], the target named is Mitogen-activated protein kinase kinase kinase 15 (Homo sapiens) (UniProt Q6ZN16). The experiment in a line: Inhibition of wild-type human partial length MAP3K15 (T625 to L932 residues) expressed in mammalian expression system at 10 uM by Kinomescan method relative to control.
The test system of data set [16] is Receptor-type tyrosine-protein kinase FLT3 (Homo sapiens), P36888 [UNDEFINED MUTATION]. The experiment in a line: Inhibition of human partial length FLT3 ITD/F691L double mutant expressed in bacterial expression system at 10 uM by Kinomescan method relative to control.
Data set [17] addresses Dual specificity mitogen-activated protein kinase kinase 3 (Homo sapiens) (UniProt P46734). The experiment in a line: Inhibition of wild-type human full length MEK3 (M1 to S318 residues) expressed in mammalian expression system at 10 uM by Kinomescan method relative to control.
The target in data set [18] is Serine/threonine-protein kinase MRCK alpha (Homo sapiens) (UniProt Q5VT25). The experiment in a line: Inhibition of wild-type human partial length MRCKA (L57 to V418 residues) expressed in bacterial expression system at 10 uM by Kinomescan method relative to control.
The target in data set [19] is Tyrosine-protein kinase Lck (Homo sapiens) (UniProt P06239). The experiment in a line: Inhibition of wild-type human partial length LCK (R207 to P509 residues) expressed in bacterial expression system at 10 uM by Kinomescan method relative to control.
In data set [20] the target is Tyrosine-protein kinase CSK (Homo sapiens) (UniProt P41240). The experiment in a line: Inhibition of wild-type human full length CSK (M1 to L450 residues) expressed in bacterial expression system at 10 uM by Kinomescan method relative to control.
Data set [21] addresses Calcium/calmodulin-dependent protein kinase type II subunit alpha (Homo sapiens) (UniProt Q9UQM7). The experiment in a line: Inhibition of wild-type human partial length CAMK2A (M1 to K328 residues) expressed in bacterial expression system at 10 uM by Kinomescan method relative to control.
For data set [22], the target named is Activin receptor type-2A (Homo sapiens) (UniProt P27037). The experiment in a line: Inhibition of wild-type human ACVR2A (V171 to T499 residues) expressed in bacterial expression system at 10 uM by Kinomescan method relative to control.
Data set [23] deals with Dual specificity mitogen-activated protein kinase kinase 2 (Homo sapiens) (UniProt P36507). The experiment in a line: Inhibition of wild-type human full length MEK2 (M1 to V400 residues) expressed in mammalian expression system at 10 uM by Kinomescan method relative to control.
For data set [24], the target named is Mitogen-activated protein kinase 9 (Homo sapiens) (UniProt P45984). The experiment in a line: Inhibition of wild-type human full length JNK2 (M1 to Q382 residues) expressed in mammalian expression system at 10 uM by Kinomescan method relative to control.
Data set [25] addresses Phosphatidylinositol 5-phosphate 4-kinase type-2 gamma (Homo sapiens) (UniProt Q8TBX8). The experiment in a line: Inhibition of wild-type human partial length PIP5K2C (M1 to A421 residues) expressed in mammalian expression system at 10 uM by Kinomescan method relative to control.
The target of data set [26] is Serine/threonine-protein kinase Sgk2 (Homo sapiens) (UniProt Q9HBY8). The experiment in a line: Inhibition of wild-type human partial length SGK2 (L54 to C427 residues) expressed in mammalian expression system at 10 uM by Kinomescan method relative to control.
The target of data set [27] is Serine/threonine-protein kinase PAK 6 (Homo sapiens) (UniProt Q9NQU5). The experiment in a line: Inhibition of wild-type human partial length PAK6 (N298 to C681 residues) expressed in bacterial expression system at 10 uM by Kinomescan method relative to control.
Sequence of Serine/threonine-protein kinase PAK 6 (Homo sapiens) (Q9NQU5 whole entry, looked up, the tested form may be a part): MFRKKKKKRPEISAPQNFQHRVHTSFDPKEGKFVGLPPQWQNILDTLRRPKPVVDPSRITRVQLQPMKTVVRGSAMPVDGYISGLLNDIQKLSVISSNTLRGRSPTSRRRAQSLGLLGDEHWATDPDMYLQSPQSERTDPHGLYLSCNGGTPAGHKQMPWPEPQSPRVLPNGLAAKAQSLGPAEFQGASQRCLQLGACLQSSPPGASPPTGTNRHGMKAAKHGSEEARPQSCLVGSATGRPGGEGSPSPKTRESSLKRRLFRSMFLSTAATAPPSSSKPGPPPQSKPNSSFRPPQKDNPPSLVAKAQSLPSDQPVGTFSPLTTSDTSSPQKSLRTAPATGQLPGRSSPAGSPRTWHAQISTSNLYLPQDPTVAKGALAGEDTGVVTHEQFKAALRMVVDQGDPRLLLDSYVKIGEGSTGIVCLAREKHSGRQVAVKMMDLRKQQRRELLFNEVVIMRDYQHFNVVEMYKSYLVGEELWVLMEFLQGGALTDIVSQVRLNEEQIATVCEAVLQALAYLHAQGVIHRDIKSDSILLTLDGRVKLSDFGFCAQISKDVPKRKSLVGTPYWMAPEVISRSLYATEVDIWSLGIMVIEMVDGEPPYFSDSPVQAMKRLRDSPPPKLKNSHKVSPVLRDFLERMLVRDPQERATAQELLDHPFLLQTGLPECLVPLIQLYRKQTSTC

Sequence of Phosphatidylinositol 4,5-bisphosphate 3-kinase catalytic subunit gamma isoform (Homo sapiens) (P48736 whole entry, looked up, the tested form may be a part, canonical isoform): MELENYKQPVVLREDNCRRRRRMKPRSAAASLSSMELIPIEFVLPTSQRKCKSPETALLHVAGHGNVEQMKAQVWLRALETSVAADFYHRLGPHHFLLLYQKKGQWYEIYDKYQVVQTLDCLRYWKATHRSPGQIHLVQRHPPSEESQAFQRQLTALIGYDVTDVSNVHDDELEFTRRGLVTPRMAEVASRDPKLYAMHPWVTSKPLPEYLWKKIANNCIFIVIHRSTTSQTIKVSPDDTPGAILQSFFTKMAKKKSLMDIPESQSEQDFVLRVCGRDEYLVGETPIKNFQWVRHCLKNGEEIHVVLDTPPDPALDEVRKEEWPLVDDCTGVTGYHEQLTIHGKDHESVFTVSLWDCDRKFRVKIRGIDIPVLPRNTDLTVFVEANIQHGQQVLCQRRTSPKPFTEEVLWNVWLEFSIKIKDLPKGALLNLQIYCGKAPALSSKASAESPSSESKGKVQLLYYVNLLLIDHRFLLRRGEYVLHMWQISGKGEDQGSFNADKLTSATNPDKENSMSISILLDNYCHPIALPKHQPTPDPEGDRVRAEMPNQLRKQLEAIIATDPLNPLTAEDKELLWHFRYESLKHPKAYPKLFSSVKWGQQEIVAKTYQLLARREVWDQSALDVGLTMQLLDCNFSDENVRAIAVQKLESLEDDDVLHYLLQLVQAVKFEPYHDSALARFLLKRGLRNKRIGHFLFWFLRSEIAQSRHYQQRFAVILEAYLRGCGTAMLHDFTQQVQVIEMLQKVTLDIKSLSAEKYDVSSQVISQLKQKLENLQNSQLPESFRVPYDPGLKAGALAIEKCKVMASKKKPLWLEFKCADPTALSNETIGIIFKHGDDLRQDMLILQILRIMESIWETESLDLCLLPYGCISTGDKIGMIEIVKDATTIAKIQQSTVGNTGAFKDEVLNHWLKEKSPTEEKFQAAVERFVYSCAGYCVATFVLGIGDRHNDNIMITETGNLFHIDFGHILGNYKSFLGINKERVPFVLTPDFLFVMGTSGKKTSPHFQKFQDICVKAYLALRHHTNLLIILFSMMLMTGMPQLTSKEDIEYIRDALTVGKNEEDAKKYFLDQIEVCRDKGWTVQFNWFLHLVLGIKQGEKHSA
Sequence of Tyrosine-protein kinase FRK (Homo sapiens) (P42685 whole entry, the tested form may be a part): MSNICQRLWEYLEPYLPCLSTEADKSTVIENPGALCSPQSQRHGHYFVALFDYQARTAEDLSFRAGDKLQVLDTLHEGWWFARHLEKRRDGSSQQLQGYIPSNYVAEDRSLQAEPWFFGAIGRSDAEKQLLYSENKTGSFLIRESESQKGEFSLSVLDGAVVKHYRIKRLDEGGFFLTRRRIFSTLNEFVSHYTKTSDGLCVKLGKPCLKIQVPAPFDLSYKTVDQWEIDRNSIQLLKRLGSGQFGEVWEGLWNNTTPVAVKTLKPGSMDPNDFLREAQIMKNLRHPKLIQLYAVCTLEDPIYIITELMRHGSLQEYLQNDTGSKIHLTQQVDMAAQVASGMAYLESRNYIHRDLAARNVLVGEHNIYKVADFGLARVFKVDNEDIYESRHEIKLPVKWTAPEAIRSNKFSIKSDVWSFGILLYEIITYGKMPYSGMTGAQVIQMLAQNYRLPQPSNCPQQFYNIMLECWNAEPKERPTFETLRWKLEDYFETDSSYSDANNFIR
Sequence of Serine/threonine-protein kinase Sgk1 (Homo sapiens) (O00141 whole entry, the tested form may be a part): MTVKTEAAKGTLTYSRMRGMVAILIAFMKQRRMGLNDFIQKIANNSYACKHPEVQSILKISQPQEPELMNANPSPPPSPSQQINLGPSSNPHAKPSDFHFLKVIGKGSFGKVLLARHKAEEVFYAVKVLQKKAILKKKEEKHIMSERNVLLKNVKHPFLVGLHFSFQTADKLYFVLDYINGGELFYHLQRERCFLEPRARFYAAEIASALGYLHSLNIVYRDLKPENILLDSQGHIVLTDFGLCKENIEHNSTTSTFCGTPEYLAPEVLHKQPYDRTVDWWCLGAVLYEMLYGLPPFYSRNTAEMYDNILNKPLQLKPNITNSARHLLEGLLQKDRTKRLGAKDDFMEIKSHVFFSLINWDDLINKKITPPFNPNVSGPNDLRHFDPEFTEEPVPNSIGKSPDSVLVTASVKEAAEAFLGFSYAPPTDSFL
Sequence of Serine/threonine-protein kinase Nek1 (Homo sapiens) (Q96PY6 whole entry, the tested form may be a part): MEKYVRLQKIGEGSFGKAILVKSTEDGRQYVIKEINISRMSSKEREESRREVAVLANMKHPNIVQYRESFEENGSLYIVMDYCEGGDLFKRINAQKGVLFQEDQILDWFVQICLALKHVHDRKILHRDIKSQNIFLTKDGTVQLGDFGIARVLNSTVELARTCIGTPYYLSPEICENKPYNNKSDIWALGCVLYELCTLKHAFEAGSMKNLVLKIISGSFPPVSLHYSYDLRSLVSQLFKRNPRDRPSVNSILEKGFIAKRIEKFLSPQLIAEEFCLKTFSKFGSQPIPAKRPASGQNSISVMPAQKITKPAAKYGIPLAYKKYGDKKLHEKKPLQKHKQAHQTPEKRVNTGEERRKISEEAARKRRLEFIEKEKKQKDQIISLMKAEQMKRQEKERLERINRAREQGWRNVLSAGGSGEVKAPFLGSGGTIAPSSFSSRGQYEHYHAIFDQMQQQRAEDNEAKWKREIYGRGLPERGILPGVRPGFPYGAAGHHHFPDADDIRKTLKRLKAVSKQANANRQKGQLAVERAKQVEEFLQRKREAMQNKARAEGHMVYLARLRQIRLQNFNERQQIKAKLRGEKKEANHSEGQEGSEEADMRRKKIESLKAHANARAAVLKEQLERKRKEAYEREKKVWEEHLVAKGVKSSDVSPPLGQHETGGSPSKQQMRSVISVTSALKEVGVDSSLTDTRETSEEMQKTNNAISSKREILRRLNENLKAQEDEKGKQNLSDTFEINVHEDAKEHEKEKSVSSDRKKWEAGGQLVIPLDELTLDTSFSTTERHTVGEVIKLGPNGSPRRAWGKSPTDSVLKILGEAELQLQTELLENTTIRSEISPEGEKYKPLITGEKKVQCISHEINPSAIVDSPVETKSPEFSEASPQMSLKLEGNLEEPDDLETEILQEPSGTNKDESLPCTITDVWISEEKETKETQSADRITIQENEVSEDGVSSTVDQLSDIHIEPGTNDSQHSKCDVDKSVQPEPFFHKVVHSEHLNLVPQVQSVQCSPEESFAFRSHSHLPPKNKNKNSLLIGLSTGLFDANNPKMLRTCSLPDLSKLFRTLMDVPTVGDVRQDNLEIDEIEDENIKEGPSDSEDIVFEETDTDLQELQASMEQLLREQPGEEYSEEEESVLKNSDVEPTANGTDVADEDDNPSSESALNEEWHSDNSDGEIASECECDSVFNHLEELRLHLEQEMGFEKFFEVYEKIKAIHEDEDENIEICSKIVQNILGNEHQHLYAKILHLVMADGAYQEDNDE
Sequence of Calcium/calmodulin-dependent protein kinase type II subunit alpha (Homo sapiens) (Q9UQM7 whole entry, the tested form may be a part): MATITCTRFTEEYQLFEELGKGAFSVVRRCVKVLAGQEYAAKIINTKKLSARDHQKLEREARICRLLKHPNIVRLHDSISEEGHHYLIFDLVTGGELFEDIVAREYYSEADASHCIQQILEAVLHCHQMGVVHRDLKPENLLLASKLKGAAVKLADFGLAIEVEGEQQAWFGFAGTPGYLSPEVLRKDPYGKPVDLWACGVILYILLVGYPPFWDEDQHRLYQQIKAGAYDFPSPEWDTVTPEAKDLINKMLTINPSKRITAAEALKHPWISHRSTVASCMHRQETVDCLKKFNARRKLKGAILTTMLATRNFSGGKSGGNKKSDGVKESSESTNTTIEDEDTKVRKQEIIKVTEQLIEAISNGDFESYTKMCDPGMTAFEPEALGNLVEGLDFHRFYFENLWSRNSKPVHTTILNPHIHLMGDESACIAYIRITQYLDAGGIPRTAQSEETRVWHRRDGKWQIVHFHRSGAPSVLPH
Sequence of Activin receptor type-2A (Homo sapiens) (P27037 whole entry, the tested form may be a part): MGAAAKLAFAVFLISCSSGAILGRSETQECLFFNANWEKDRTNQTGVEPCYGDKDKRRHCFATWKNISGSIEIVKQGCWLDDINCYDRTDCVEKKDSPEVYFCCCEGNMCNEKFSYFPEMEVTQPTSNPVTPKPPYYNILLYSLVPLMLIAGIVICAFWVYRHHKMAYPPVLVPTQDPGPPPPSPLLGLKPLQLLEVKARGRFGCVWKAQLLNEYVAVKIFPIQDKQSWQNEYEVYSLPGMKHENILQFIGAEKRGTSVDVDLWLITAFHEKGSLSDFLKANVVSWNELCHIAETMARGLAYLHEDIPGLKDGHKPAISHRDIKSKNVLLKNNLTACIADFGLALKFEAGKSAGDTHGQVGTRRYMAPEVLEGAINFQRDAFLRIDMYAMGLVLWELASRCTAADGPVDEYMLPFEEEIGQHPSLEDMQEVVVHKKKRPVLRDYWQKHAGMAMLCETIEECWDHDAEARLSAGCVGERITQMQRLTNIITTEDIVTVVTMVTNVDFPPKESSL

As usually defined, the inhibition is the drop in the measured response relative to a control, in per cent. Regarding `O=C(Nc1cccc([C@@H]2CN(c3ncnc4[nH]ccc34)CCN2CCO)c1)Nc1c(F)cccc1N1CCCC1`, the inhibition in data set [1] came out at 4.3%; in data set [2], 100%; in data set [3] it was 100%; in [5], 84%; in data set [6], 100%; in data set [7], 35%. Moreover, the inhibition in data set [8] is 95%; in [9], 90%; in [10], 99%; in [11] it was 97%; in [12], 100%; in data set [13], 84%. Further, in [4], the half-life was 2.5 h.
Regarding `O=C(Nc1cccc([C@H]2CCCN(c3ncnc4[nH]ccc34)C2)c1)Nc1ccccc1N1CCCC1`, the inhibition in data set [14] was 26%; in data set [15], 50%; in data set [16] it was 3.6%; in data set [17], 54%; in data set [18] it was 100%; in data set [19], 48%. The inhibition in [20] came to 83%; in [21] it was 77%; in data set [22], 100%; in [23] it was 17%; in [24], 81%; in data set [25], 48%. Moreover, the inhibition in data set [26] is 34%; in data set [27], 85%.
